Source: paper PMC4890880 (ACS infectious diseases, 2016)

What was measured:
[1] = test system: Plasmodium berghei (Pb-Luc) exoerythrocytic-stage parasites; settings: for normalised signal at concentration 10 (first series): concentration 10, first series of dose columns; for normalised signal at concentration 10 (second series): concentration 10, second series of dose columns; for IC50: read-out: PbLuc_IC50, Broad compounds, dose response top concentration 10; for IC50 / PbLuc_max_inhibition (%): sheet "2nd round"
HepG2-A16-CD81EGFP cells = settings: sheet "2nd round"; for IC50: read-out: Tox_IC50, HepG2 cytotoxicity

| Structure (SMILES) | normalised signal at concentration 0.000508053 (first series) [1] | normalised signal at concentration 0.000508053 (second series) [1] | normalised signal at concentration 0.00152416 (first series) [1] | normalised signal at concentration 0.00152416 (second series) [1] | normalised signal at concentration 0.00457247 (first series) [1] | normalised signal at concentration 0.00457247 (second series) [1] | normalised signal at concentration 0.0137174 (first series) [1] | normalised signal at concentration 0.0137174 (second series) [1] | normalised signal at concentration 0.0411523 (first series) [1] | normalised signal at concentration 0.0411523 (second series) [1] | normalised signal at concentration 0.123457 (first series) [1] | normalised signal at concentration 0.123457 (second series) [1] | normalised signal at concentration 0.37037 (first series) [1] | normalised signal at concentration 0.37037 (second series) [1] | normalised signal at concentration 1.11111 (first series) [1] | normalised signal at concentration 1.11111 (second series) [1] | normalised signal at concentration 3.33333 (first series) [1] | normalised signal at concentration 3.33333 (second series) [1] | normalised signal at concentration 10 (first series) [1] | normalised signal at concentration 10 (second series) [1] | also measured |
| --- | --- | --- | --- | --- | --- | --- | --- | --- | --- | --- | --- | --- | --- | --- | --- | --- | --- | --- | --- | --- | --- |
| C[C@@H]1CCCCO[C@H](CN(C)S(=O)(=O)c2ccc(F)cc2)[C@H](C)CN([C@H](C)CO)C(=O)c2cc(N(C)C)ccc2O1 [BRD-K77041516-001-01-2] | 1.187 | 0.9225 | 0.8332 | 0.8694 | 0.9468 | 0.8206 | 0.8125 | 0.9272 | 0.9511 | 0.9568 | 1.006 | 0.7947 | 0.8766 | 1.201 | 1.15 | 1.082 | 0.9005 | 1.135 | 0.8572 | 0.9617 | IC50 [1]: > 10 µM; PbLuc_max_inhibition (%) [1]: 21%; IC50 (HepG2-A16-CD81EGFP cells): > 10 µM; Tox_max_inhibition (%) (HepG2-A16-CD81EGFP cells): 4.38% |
| C[C@@H]1CCCCO[C@H](CN(C)S(=O)(=O)c2ccc(F)cc2)[C@H](C)CN([C@@H](C)CO)C(=O)c2cc(N(C)C)ccc2O1 [BRD-K77718491-001-01-4] | 0.8436 | 0.9419 | 1.131 | 0.8322 | 0.8284 | 0.9071 | 1.006 | 0.921 | 0.8082 | 0.9497 | 0.9873 | 0.8645 | 0.8615 | 0.9228 | 0.9968 | 0.8769 | 0.7967 | 1.06 | 0.9825 | 0.8275 | IC50 [1]: > 10 µM; PbLuc_max_inhibition (%) [1]: 20%; IC50 (HepG2-A16-CD81EGFP cells): > 10 µM; Tox_max_inhibition (%) (HepG2-A16-CD81EGFP cells): 7% |
